According to US12486284B2, “Ubiquitin-specific protease inhibitor and preparation method therefor and use thereof” (CHASER THERAPEUTICS, INC., priority 2019, dated 2025):
Where two headings read alike, the source gives them in different places.

Columns and labels:
USP28 = target: T1, USP28 (Homo sapiens, UniProt Q96RU2); assay: USP28 activity measured using ubiquitin-rhodamine 110 method; format: biochemical; conditions: for IC50: purified USP28 4 nM, ubiquitin-rhodamine 110 125 nM, 30 min preincubation; for IC50(F)/IC50(E) USP28: ratio of IC50 of related 3-NH2 compound (F) to IC50 of 3-NHMe compound disclosed herein (E)
T1 construct: purchased R&D Systems
T1 sequence (Q96RU2 1-1077): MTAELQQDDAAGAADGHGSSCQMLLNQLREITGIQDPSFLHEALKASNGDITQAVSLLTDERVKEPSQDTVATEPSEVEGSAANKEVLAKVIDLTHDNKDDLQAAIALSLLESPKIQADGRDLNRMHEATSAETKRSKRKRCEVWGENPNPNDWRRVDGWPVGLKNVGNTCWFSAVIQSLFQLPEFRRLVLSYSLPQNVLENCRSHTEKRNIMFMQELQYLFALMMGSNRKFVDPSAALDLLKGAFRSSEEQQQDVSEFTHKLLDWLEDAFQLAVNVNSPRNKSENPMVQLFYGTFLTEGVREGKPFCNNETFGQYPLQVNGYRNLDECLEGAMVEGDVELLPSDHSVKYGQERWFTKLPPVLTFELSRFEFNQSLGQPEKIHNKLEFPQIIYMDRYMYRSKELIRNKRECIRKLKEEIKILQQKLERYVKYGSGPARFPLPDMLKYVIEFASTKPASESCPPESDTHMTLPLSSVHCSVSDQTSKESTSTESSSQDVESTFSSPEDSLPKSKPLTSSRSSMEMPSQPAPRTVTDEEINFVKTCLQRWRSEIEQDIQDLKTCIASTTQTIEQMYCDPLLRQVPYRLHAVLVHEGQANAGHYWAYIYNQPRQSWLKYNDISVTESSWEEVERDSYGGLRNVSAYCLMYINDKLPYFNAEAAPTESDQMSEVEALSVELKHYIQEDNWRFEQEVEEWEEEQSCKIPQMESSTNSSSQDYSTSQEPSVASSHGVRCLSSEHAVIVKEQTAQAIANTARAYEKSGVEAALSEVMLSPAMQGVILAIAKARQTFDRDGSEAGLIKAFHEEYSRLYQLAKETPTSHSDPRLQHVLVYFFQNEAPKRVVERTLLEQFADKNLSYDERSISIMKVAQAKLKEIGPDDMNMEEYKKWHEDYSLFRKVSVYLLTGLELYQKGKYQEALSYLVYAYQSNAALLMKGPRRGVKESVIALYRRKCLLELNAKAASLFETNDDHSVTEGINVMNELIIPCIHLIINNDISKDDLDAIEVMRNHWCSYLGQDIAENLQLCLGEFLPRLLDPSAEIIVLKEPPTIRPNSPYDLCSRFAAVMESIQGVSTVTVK
Procedure, shortened: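 Purified USP28 (4 nM final) preincubated with compounds 30 min at room temperature in Tris-HCl pH 8.0 buffer with CaCl2, BME, Prionix and Triton X-100 (DMSO ≤0.5%). Ubiquitin-rhodamine 110 added to 125 nM; fluorescence (ex 485/em 535 nm) read immediately, inhibition versus DMSO control used to calculate IC50.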

USP25 = target: T2, USP25 (Homo sapiens, UniProt Q9UHP3); assay: USP25 activity measured using ubiquitin-rhodamine 110 method; format: biochemical; conditions: for IC50: purified USP25 15 nM, ubiquitin-rhodamine 110 125 nM, 30 min preincubation; for IC50(F)/IC50(E) USP25: ratio of IC50 of related 3-NH2 compound (F) to IC50 of 3-NHMe compound disclosed herein (E)
T2 construct: purchased R&D Systems
T2 sequence (Q9UHP3 1-1055): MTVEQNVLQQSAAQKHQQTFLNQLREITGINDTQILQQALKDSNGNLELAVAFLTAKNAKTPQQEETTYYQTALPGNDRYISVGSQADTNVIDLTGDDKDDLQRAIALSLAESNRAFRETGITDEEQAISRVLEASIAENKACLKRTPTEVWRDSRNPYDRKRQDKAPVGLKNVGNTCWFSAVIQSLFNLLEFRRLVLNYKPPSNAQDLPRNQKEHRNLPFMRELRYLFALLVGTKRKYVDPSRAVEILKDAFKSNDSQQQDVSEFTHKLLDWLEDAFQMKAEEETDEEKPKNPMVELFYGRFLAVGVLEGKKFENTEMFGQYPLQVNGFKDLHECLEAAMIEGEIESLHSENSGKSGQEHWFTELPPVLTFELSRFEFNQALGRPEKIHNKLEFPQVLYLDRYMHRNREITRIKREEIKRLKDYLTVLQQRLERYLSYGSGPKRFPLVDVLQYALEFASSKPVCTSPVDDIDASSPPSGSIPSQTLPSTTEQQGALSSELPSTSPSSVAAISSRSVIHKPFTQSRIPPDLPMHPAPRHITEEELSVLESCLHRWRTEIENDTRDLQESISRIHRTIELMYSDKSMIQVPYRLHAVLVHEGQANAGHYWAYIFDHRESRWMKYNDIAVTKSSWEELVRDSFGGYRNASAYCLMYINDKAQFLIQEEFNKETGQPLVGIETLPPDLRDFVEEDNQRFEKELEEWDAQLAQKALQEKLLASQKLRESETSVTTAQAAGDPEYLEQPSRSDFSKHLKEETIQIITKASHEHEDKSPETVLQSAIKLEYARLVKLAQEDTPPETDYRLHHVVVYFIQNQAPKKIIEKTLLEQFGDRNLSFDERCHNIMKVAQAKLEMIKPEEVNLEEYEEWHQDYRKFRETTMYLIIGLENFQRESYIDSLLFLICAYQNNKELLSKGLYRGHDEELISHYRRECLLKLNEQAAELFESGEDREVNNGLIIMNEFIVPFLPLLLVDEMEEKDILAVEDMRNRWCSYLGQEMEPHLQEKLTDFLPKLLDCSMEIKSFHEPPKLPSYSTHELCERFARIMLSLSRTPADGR
Procedure, shortened: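 Compound preincubated 30 min at room temperature with USP25 (15 nM final) in 20 mM Tris-HCl pH 8.0, 2 mM CaCl2, 3 mM BME, 0.01% Prionix, 0.01% Triton X-100, ≤0.5% DMSO. Ubiquitin-rhodamine 110 (125 nM) then added; fluorescence (ex 485/em 535 nm) read immediately. IC50 from % inhibition across concentrations.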

[1] = read-out: Inhibitory activity against USP28 (IC50)
[2] = read-out: Inhibitory activity against USP25 (IC50)
[3] = Inhibitory activity against USP28 (IC50)
[4] = Inhibitory activity against USP25 (IC50)

SMILES | IC50 (USP28; [1]) | IC50 (USP25; [2]) | IC50 (USP28; [3]) | IC50(F)/IC50(E) USP28 (USP28) | IC50 (USP25; [4]) | IC50(F)/IC50(E) USP25 (USP25)
CNc1c(C(=O)NCCc2ccc(N3C[C@H]4CC[C@@H](C3)N4)cc2)sc2nc(Cl)ccc12 [Compound I-82] | 100 to 1000 nM | 100 to 1000 nM |  |  |  | 
CNc1c(C(=O)N[C@@H]2Cc3ccc(N4CC5CCC(C4)N5)cc3C2)sc2nc(C)ccc12 [Compound I-83] | 100 to 1000 nM | 5000 to 10000 nM |  |  |  | 
CNc1c(C(=O)N[C@H]2Cc3ccc(N4CC5CCC(C4)N5)cc3C2)sc2nc(C)ccc12 [Compound I-84] | 1000 to 5000 nM | > 10000 nM |  |  |  | 
CNc1c(C(=O)N[C@H]2COc3cc(N4CC5CCC(C4)N5)ccc3C2)sc2nc(C)ccc12 [Compound I-85] |  |  | < 100 nM | 8.8 | < 100 nM | >8
CNc1c(C(=O)NC2COc3cc(N4CC5CCC(C4)N5)ccc3C2)sc2nc(C)ccc12 (stereo not shown) [Compound I-86] | 100 to 1000 nM | 1000 to 5000 nM |  |  |  | 
CNc1c(C(=O)NC2CCc3cc(N4CC5CCC(C4)N5)ccc3C2)sc2nc(C)ccc12 (stereo not shown) [Compound I-89] | 1000 to 5000 nM | 5000 to 10000 nM |  |  |  | 
CNc1c(C(=O)N[C@H]2CCc3cc(N4CC5CCC(C4)N5)ccc3C2)sc2nc(C)ccc12 [Compound I-90] |  | 100 to 1000 nM | < 100 nM | 5.5 |  | >6
CCc1ccc2c(NC)c(C(=O)N[C@H]3COc4cc(N5CC6CCC(C5)N6)ccc4C3)sc2n1 [Compound I-91] |  |  | < 100 nM |  | < 100 nM | 
CNc1c(C(=O)NCC(C)(C)c2ccc(N3CC4CCC(C3)N4)cc2F)sc2nc(C)ccc12 [Compound I-92] | 1000 to 5000 nM | > 10000 nM |  |  |  | 
CNc1c(C(=O)NCCc2ccc(N3C[C@H]4CC[C@@H](C3)N4)cc2)sc2nc(N)ccc12 [Compound I-93, N-4-(3,8-diazabicyclo[3.2.1]octan-3-yl)phenethyl-6-amino-3-methylaminothiophene[2,3-b]pyridine-2-carboxamide] | 100 to 1000 nM | 100 to 1000 nM |  |  |  | 
CNc1ccc2c(NC)c(C(=O)NCCc3ccc(N4C[C@H]5CC[C@@H](C4)N5)cc3)sc2n1 [Compound I-94] | 100 to 1000 nM | > 10000 nM |  |  |  | 
CNc1c(C(=O)NCCc2ccc(N3C[C@H]4CC[C@@H](C3)N4)cc2)sc2nc(N)cc(C(F)F)c12 [Compound I-95] |  |  | < 100 nM |  | < 100 nM | 
